“Also recorded” adds a separate entry of the source.

Data set [1] deals with cleaved caspase-3 and PARP. As to the kind of experiment: Western blot of caspase 3 and PARP in iFECD stimulated with TGF-β2. It is filed as cell-based, human. The settings on record: 0.1 μM; for cleaved caspase-3 and PARP expression: 100 ng/ml TGF-β2, 24 hours; for caspase activity: TGF-β2. As for the experimental part: (§1) The medium was removed from the culture dish of cultured disease model cells, and the disease model cells were supplemented with 1×PBS (−) that was preheated to 37° C., followed by washing. This operation was repeated twice. The cells were supplemented with 1×PBS (−) again and incubated for 5 minutes at 37° C. (5% CO2). After the PBS (−) was removed, the cells were supplemented with 0.05% Trypsin-EDTA (nacalai tesque, 32778-34) and incubated for 5 minutes at 37° C. (5% CO2). The cells were then suspended in a medium, and collected by centrifugation at 1500 rpm for 3 minutes. Medium: DMEM (nacalai tesque, 08456-36)+10% FBS (Biowest, S1820-500)+1% P/S (nacalai tesque, 26252-94).
The Fuchs' endothelial corneal dystrophy patient-derived immortalized corneal endothelial cells were seeded in a 6-well plate at a rate of 1.5×10^5 cells per well and cultured at 37° C. (5% CO2) for 48 hours. DMEM+10% FBS+1% P/S was used as the medium. After 48 hours, the medium was removed, and SB203580 (Cayman, 13067), PH-797804 (Selleck Chemicals, S2726), VX-702 (Selleck Chemicals, 56005) and AKP-001 were added to DMEM+2% FBS+1% P/S so that all the final concentration was 0.1 μM, followed by culturing as 24-hour pretreatment.
After 24 hours, the medium was removed, and SB203580 (Cayman, 13067), PH-797804 (Selleck Chemicals, S2726), VX-702 (Selleck Chemicals, 56005) and AKP-001, together with 100 ng/ml recombinant human TGF-β2 (R & D systems, RND302-B2-002), were added to DMEM+2% FBS+1% P/S so that all the final concentration was 0.1 μM, followed by culturing for 24 hours. After 24 hours, the protein was subjected to Western blotting according to the following procedure to evaluate the effect on apoptosis.
The medium was collected on ice to collect free and dead cells as well. The solution obtained from washing the cells twice with 1×PBS (−) was also collected, followed by centrifugation of 800 g at 4° C. for 5 minutes. The supernatant was discarded to obtain precipitates. The washed cells were supplemented with a protein extraction buffer (RIPA; 50 mM Tris-HCl (pH 7.4), 150 mM NaCl, 1 mM EDTA, 0.1% SDS, 0.5% DOC, 1% NP-40) on ice to extract proteins. The precipitates from centrifuging the free and dead cells were also subsequently suspended together for extraction. The collected solution was pulverized three times for 30 seconds in cold water with a sonication device (BIORUPTOR, TOSHO DENKI) and centrifuged for 10 min at 4° C. at 15000 rpm to collect the supernatant of proteins.
Eight μg of the extracted protein was separated by SDS-PAGE and transferred onto a nitrocellulose membrane. A rabbit anti-Caspase 3 antibody (Cell Signaling, 9662), rabbit anti-PARP antibody (Cell Signaling, 9542), and mouse anti-GAPDH antibody (MBL, M171-3) were used as the primary antibodies. A peroxidase-labeled anti-rabbit antibody and anti-mouse antibody (GE Healthcare Biosciences, NA931V, NA934V) were used as the secondary antibodies. For the primary antibodies, the rabbit anti-PARP antibody was diluted 1000-fold, the rabbit anti-Caspase 3 antibody was diluted 1000-fold, and the mouse anti-GAPDH antibody was diluted 3000-fold. Further, the secondary antibody was diluted 5000-fold. Chemi Lumi ONE Ultra (Nacalai Tesque, 11644-40) was used for detection. The detected band strength was analyzed with a lumino image analyzer LAS-4000 mini (Fuji Film) and ImageQuant™ software (GE Healthcare).

The test system of data set [2] is Fuchs' endothelial corneal dystrophy patient-derived immortalized corneal endothelial cells. Put plainly: Cell damage inhibitory effect on iFECD stimulated with TGF-β2 (phase contrast microscope). It is filed as cell-based, human. The settings on record: for disorder in the corneal endothelial cells: 1 μM and 3 μM, iFECD, pretreatment, TGF-β2 stimulation; for cell damage inhibitory effect for the corneal endothelial cells: at sub-μM. As for the experimental part: as §1, with “in which Fuchs' endothelial corneal dystrophy patient-derived immortalized corneal endothelial cells (hereinafter, referred to as” for “of cultured”, “cells) were being cultured,” for “cells,”, “the” for “the disease model”, “and were washed.” for “followed by washing.”, “minutes.” for “minutes. Medium:”, “26252-94) was used as the medium. The disease model cells were seeded in a 6-well plate at a rate of 1.5×10^5 cells per well and cultured at 37° C. (5% CO2) for 48 hours. DMEM+10% FBS+1% P/S was used as the medium.” for “26252-94).”
After 48 hours, the medium was removed, and AKP-001, SB203580 (Cayman, 13067), PH-797804 (Selleck Chemicals, S2726) and VX-702 (Selleck Chemicals, 56005) were added to DMEM+2% FBS+1% P/S so that the final concentration was 0.01, 0.03, 0.1, 0.3, 1, 3, 10 and 30 μM, followed by culturing as 24-hour pretreatment. After 24 hours, the medium was removed, and AKP-001, 5B203580 (Cayman, 13067), PH-797804 (Selleck Chemicals, S2726), or VX-702 (Selleck Chemicals, S6005), together with 100 ng/ml Recombinant Human TGF-β2 (R&D systems, RND302-B2-002), were added to DMEM+2% FBS+1% P/S so that the final concentration was 0.01 μM, 0.03 μM, 0.1 μM, 0.3 μM, 1 μM, 3 μM, 10 μM, and 30 μM, followed by culturing for 24 hours. After 24 hours, cell damage was evaluated by observation with a phase contrast microscope. As a control, immortalized corneal endothelial cells that were not stimulated with TGF-β were used.

The next data set has as its system corneal endothelium. Put plainly: Histological analysis of the corneal endothelium after instillation. Format: in vivo. The settings on record: 10 μM into the anterior chamber, after 24 hours, positive control. The text has this: Rabbits were euthanized, and then their eyes were removed and histologically analyzed. Expression of markers related to corneal endothelial functions was confirmed by immunostaining. The sclerocornea fragments were fixed with 0.5% paraformaldehyde and then blocked with 1% bovine serum albumin. As primary antibodies, ZO-1 antibody (Life Technologies) and N-cadherin antibody (BD Biosciences), which are indicators of the barrier function of corneal endothelial cells, and Na^+/K^+-ATPase antibody (MILLIPORE), which is an indicator of pump functions, were added, followed by standing at 4° C. overnight. […] Further, nuclear staining was performed using DAPI (Dojindo). To observe the cell morphology, actin was stained using Phalloidin (Life Technologies). The stained sclerocornea fragments were mounted in slide glasses and observed using a confocal fluorescence microscope (TCS SPE, Leica).
In addition, rabbits were euthanized, and then their eyes were removed. To assess cell death, the sclerocornea fragments were stained with Annexin V (Zymed Laboratories) and PI (Zymed Laboratories), fixed with 0.5% paraformaldehyde, and nuclear stained with DAPI (Dojindo). The stained sclerocornea fragments were mounted in slide glass and observed using a confocal fluorescence microscope (TCS SPE, Leica). Staurosporine (10 μM, Merck Millipore) was administered into the anterior chamber of a rabbit eyeball, and after 24 hours, it was used as a positive control.

Take `CNC(=O)c1ccc(C)c(-n2c(C)cc(OCc3ccc(F)cc3F)c(Br)c2=O)c1` [PH-797804]: in data set [1], the “cleaved caspase-3 and PARP expression” value is given as “confirmed similarly”; the caspase activity result is “not inhibited”. In data set [2], the “disorder in the corneal endothelial cells” value is “effectively suppressed” and the “cell damage inhibitory effect for the corneal endothelial cells” value was “not observed; also recorded: No inhibitory effects”.
In the case of `NC(=O)c1ccc(N(C(N)=O)c2c(F)cccc2F)nc1-c1ccc(F)cc1F` [VX-702], in data set [1], the “cleaved caspase-3 and PARP expression” value is reported as “confirmed similarly”; the caspase activity result is given as “not inhibited”. In data set [2], the “disorder in the corneal endothelial cells” value is on record as “effectively suppressed” and the “cell damage inhibitory effect for the corneal endothelial cells” value is “not observed; also recorded: No inhibitory effects”.
With `CN[C@@H]1C[C@H]2O[C@@](C)([C@@H]1OC)n1c3ccccc3c3c4c(c5c6ccccc6n2c5c31)C(=O)NC4` [staurosporine, reference compound], the “Annexin V and PI staining (cell death)” value in the data set on corneal endothelium is “Staining with Annexin V or PI was observed”.

The record behind these values is patent US11576914B2, “Drug for treating or preventing disorder caused by TGF-β signaling, and application thereof” (THE DOSHISHA, priority 2017, dated 2023).
